Biological target: ATP-dependent translocase ABCB1 (Homo sapiens, UniProt P08183)
Assay: TP_TRANSPORTER: transepithelial transport (basal to apical) in MDR1-expressing MDCK cells
Assay type: functional, cell-based
Conditions: dog

Chain of ATP-dependent translocase ABCB1 (P08183 whole entry): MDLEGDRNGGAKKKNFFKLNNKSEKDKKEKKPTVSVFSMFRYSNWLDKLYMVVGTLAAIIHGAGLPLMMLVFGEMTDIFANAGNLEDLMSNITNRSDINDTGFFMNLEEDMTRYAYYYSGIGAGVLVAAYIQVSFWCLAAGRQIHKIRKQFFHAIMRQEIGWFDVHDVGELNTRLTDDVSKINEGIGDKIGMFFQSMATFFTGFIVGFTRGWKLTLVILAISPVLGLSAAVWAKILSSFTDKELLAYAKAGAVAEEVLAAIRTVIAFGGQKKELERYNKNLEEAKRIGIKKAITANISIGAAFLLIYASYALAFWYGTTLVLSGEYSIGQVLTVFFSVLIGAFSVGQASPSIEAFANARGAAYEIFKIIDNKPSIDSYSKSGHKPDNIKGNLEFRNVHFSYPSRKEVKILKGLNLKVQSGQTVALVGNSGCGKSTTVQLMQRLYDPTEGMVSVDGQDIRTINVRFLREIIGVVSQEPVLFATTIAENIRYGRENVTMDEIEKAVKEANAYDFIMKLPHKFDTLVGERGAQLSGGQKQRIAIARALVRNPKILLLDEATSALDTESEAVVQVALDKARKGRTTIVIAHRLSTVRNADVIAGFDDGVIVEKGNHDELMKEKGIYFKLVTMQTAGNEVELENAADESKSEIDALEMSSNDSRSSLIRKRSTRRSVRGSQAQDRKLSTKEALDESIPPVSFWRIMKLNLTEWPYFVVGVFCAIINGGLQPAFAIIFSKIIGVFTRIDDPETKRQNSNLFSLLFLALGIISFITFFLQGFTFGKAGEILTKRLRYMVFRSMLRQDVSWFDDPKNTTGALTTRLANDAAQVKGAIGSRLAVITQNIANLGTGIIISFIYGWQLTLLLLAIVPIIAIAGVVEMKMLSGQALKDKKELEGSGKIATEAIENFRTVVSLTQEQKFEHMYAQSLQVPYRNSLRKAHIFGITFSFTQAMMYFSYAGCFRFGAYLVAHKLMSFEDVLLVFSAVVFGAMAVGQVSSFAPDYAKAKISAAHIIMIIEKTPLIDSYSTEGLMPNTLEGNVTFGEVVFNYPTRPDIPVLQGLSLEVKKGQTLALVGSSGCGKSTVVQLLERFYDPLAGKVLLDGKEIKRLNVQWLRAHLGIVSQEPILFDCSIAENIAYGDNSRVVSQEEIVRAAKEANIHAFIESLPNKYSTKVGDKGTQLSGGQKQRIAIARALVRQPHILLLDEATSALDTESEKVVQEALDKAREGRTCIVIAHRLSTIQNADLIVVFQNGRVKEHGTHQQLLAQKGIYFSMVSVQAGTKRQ

Row | Activity | SMILES
1 | substrate [+] | C[C@H]1O[C@@H](O[C@H]2[C@@H](O)C[C@H](O[C@H]3[C@@H](O)C[C@H](O[C@H]4CC[C@@]5(C)[C@H](CC[C@@H]6[C@@H]5C[C@@H](O)[C@]5(C)[C@@H](C7=CC(=O)OC7)CC[C@]65O)C4)O[C@@H]3C)O[C@@H]2C)C[C@H](O)[C@@H]1O [DIGOXIN]
2 | substrate [+] | CC(C)(C(=O)O)c1ccc(C(O)CCCN2CCC(C(O)(c3ccccc3)c3ccccc3)CC2)cc1 (configuration not stated) [FEXOFENADINE]

— ChEMBL document CHEMBL2074190, “Grapefruit juice activates P-glycoprotein-mediated drug transport” (Pharm Res, 1999)
